Our source for the inhibition values is patent publication EP0853084B1, “Substituted purine derivatives as vitronectin receptor antagonists” (HOECHST AKTIENGESELLSCHAFT, priority 1996, dated 1998).

For this assay, the target named is humanen Vitronectinrezeptor (VnR) αvβ3 (Homo sapiens, UniProt P05106+P06756). Briefly: Inhibition of binding of Kistrin to human vitronectin receptor (αvβ3 ELISA test, K/VnR). As to conditions: 10 µM test compound, read-out: K/VnR Inhibierung bei 10 µM (in %). An excerpt:
Als Testmethode, nach der beispielsweise die antagonistische Wirkung der erfindungsgemäßen Verbindungen auf den Vitronectinrezeptor αvβ3 bestimmt werden kann, wird nachfolgend die Inhibierung der Bindung von Kistrin an humanen Vitronectinrezeptor (VnR) beschrieben (αvβ3-ELISA-Test; die Testmethode wird bei der Auflistung der Testergebnisse mit "K/VnR" abgekürzt).
Kistrin wird nach den Methoden von Dennis et al., wie in Proc. Natl. Acad. Sci. USA 1989, 87, 2471-2475 und PROTEINS: Structure, Function and Genetics 1993, 15, 312-321, beschrieben, gereinigt.
Humaner Vitronectinrezeptor wird aus der menschlichen Plazenta nach der Methode von Pytela et al., Methods Enzymol. 1987, 14.4, 475 gewonnen. Humaner Vitronectinrezeptor αvβ3 kann auch aus einigen Zellinien (zum Beispiel aus 293 Zellen, einer humanen embryonalen Nierenzellinie), die mit DNA Sequenzen für beide Untereinheiten αv und β3 des Vitronectinrezeptors co-transfziert sind, gewonnen werden. Die Untereinheiten wurden mit Octylglycosid extrahiert und anschließend über Concanavalin A, Heparin-Sepharose und S-300 chromatographiert.
Murine monoklonale Antikörper, spezifisch für die β3 Untereinheit des Vitronectinrezeptors, werden nach der Methode von Newman et al., Blood, 1985, 227-232, oder nach einem ähnlichen Verfahren hergestellt. Das Kaninchen Fab 2 anti-Maus Fc Konjugat an Meerrettich-Peroxidase (anti-Maus Fc HRP) wurde von Pel Freeze (Katalog Nr. 715 305-1) bezogen.
Die Fähigkeit von Substanzen die Bindung von Kistrin an den Vitronectinrezeptor zu inhibieren, kann mit einem ELISA-Test ermittelt werden. Zu diesem Zweck werden Nunc 96 well-Mikrotiterplatten mit einer Lösung von Kistrin (0.002 mg/ml) nach der Methode von Dennis et al., wie in PROTEINS: Structure, Function and Genetics 1993, 15, 312-321, beschrieben, belegt. Die Platten werden dann zweimal mit PBS/0.05 % Tween-20 gewaschen und durch Inkubieren (60 min) mit RinderserumAlbumin (BSA, 0.5 %, RIA Güteklasse oder besser) in Tris-HCl (50 mM), NaCl (100 mM), MgCl2 (1 mM), CaCl2 (1 mM), MnCl2 (1 mM), pH 7, geblockt. Man stellt Lösungen von bekannten Inhibitoren und von den Testsubstanzen in Konzentrationen von 2 x 10^-12 bis 2 x 10^-6 mol/l in Assay-Puffer (BSA (0.5 %, RIA-Güteklasse oder besser) in Tris-HCl (50 mM), NaCl (100 mM), MgCl2 (1 mM), CaCl2 (1 mM), MnCl2 (1 mM), pH 7) her. Die geblockten Platten werden entleert, und jeweils 0.025 ml dieser Lösung, die eine definierte Konzentration (2 x 10^-12 bis 2 x 10^-6 mol/l) entweder an einem bekannten Inhibitor oder an einer Testsubstanz enthält, werden in jedes well gegeben. 0.025 ml einer Lösung des Vitronectinrezeptors im Testpuffer (0.03 mg/ml) werden in jedes well der Platte pipettiert und die Platte wird auf einem Schüttler 60-180 min bei Raumtemperatur inkubiert. In der Zwischenzeit wird eine Lösung (6 ml/Platte) eines für die β3-Untereinheit des Vitronectinrezeptors spezifischen murinen monoklonalen Antikörpers im Assay-Puffer (0.0015 mg/ml) hergestellt. Zu dieser Lösung gibt man einen zweiten Kaninchen-Antikörper (0.001 ml Stammlösung/6 ml der murinen monoklonalen anti-β3-Antikörper-Lösung), der ein anti-Maus Fc HRP Antikörper Konjugat darstellt, und dieses Gemisch aus murinem anti-β3 Antikörper und Kaninchen anti-Maus Fc HRP Antikörper Konjugat läßt man während der Zeit der Rezeptor-Inhibitor-Inkubation inkubieren. Die Testplatten werden viermal mit PBS-Lösung, die 0.05 % Tween-20 enthält, gewaschen und man pipettiert jeweils 0.05 ml/well der Antikörpermischung in jedes well der Platte und inkubiert 60-180 min. Die Platte wird viermal mit PBS/0.05 % Tween-20 gewaschen und anschließend mit 0.05 ml/well einer PBS-Lösung, die 0.67 mg/ml o-Phenylendiamin und 0.012 % H2O2 enthält, entwickelt. Alternativ hierzu kann o-Phenylendiamin in einem Puffer (pH 5) eingesetzt werden, der Na3PO4 und Zitronensäure enthält. Die Farbentwicklung wird mit 1 N H2SO4 (0.05 ml/well) gestoppt. […]
In general terms: In an ELISA, binding on a coated surface is turned into a signal by an enzyme label.

humanen Vitronectinrezeptor (VnR) αvβ3, sequence (P06756 31-889 limits assumed): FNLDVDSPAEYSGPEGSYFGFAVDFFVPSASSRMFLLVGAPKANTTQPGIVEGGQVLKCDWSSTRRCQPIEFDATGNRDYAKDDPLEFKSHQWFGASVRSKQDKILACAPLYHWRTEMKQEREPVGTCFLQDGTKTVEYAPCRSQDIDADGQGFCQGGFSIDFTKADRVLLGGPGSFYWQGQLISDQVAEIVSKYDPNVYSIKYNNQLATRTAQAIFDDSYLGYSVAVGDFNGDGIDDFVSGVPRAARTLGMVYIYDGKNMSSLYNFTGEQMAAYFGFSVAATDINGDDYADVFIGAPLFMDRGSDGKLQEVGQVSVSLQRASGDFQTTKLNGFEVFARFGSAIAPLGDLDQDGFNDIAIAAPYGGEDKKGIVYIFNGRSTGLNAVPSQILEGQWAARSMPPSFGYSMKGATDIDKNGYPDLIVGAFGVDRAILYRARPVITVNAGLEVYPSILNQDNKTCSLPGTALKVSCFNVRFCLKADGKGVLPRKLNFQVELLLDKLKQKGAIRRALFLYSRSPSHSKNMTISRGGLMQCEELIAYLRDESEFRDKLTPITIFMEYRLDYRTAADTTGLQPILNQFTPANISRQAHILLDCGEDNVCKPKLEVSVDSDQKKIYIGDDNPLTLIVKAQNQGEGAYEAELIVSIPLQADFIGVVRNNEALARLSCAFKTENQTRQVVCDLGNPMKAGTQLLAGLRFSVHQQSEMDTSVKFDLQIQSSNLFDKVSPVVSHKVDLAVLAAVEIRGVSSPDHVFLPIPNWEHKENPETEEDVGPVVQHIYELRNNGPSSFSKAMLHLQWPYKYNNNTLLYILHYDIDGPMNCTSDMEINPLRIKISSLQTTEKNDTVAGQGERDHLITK
humanen Vitronectinrezeptor (VnR) αvβ3, sequence (P06756 891-1048 partner limits assumed): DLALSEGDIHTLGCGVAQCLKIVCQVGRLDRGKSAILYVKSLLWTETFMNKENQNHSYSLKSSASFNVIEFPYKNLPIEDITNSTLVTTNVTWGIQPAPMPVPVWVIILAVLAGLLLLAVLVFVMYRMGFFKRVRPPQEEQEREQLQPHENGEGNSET
humanen Vitronectinrezeptor (VnR) αvβ3, sequence (P05106 27-788): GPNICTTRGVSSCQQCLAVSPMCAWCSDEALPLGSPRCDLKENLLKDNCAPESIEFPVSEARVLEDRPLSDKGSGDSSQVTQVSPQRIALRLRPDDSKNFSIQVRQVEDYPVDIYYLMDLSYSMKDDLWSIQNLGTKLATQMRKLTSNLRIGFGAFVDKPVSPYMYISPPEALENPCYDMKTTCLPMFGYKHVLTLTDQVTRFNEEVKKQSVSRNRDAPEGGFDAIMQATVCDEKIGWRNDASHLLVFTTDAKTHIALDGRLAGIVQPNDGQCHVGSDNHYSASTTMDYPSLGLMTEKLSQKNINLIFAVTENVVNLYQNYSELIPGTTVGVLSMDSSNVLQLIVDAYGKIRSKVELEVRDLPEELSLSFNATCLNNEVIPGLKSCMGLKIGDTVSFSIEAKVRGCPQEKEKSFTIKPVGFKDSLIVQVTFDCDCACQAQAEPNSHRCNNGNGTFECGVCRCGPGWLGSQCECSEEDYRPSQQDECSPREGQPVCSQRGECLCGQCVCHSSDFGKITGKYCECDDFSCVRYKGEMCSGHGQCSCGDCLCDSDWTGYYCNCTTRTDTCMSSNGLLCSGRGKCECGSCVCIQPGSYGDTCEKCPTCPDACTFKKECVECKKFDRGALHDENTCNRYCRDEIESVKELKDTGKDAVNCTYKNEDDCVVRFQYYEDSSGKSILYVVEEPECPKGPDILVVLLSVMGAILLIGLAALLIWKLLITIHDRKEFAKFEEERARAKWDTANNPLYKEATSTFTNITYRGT

On to `N=C(N)NCCCCCNc1ncnc2c1ncn2C[C@H](NC(=O)OCc1ccccc1)C(=O)O` [Beispiel 1, N^6-(1-(5-Guanidinopentyl))-N^9-(3-(2S-(benzyloxycarbonylamino)propionsäure))-adenin], for which the inhibition at 10 µM was found to be 75%.

`N=C(N)NCCCCNc1ncnc2c1ncn2C[C@H](NC(=O)OCc1ccccc1)C(=O)O` [Beispiel 2, N^6-(1-(4-Guanidinobutyl))-N^9-(3-(2S-(benzyloxycarbonylamino)propionsäure))-adenin]: the inhibition at 10 µM amounted to 80%.

As for `N=C(N)NCCCNc1ncnc2c1ncn2C[C@H](NC(=O)OCc1ccccc1)C(=O)O` [Beispiel 3, N^6-(1-(3-Guanidinopropyl))-N^9-(3-(2S-(benzyloxycarbonylamino)propionsäure))-adenin], the inhibition at 10 µM is 77%.

Take `O=C(N[C@@H](Cn1cnc2c(NCCCCNC3=NCCN3)ncnc21)C(=O)O)OCc1ccccc1` [Beispiel 4, N^6-(1-(4-(4,5-Dihydro-1H-imidazol-2-ylamino)butyl))-N^9-(3-(2S-(benzyloxycarbonylamino)propionsäure))-adenin]: the inhibition at 10 µM was 93%.

Turning to `N=C(N)NCCCn1cnc2c(NCC[C@H](NC(=O)OCc3ccccc3)C(=O)O)ncnc21` [Beispiel 12, N^6-(4-(2S-(Benzyloxycarbonylamino)buttersäure))-N^9-(1-(3-guanidinylpropyl))-adenin], the inhibition at 10 µM is 86%.

For the compound `O=C(N[C@@H](CCNc1ncnc2c1ncn2CCCNC1=NCCN1)C(=O)O)OCc1ccccc1` [Beispiel 13, N^6-(4-(2S-(Benzyloxycarbonylamino)buttersäure))-N^9-(1-(3-(4,5-dihydro-1H-imidazol-2-ylamino)-propyl))-adenin], the inhibition at 10 µM is 92%.

In the case of `N=C(N)NCCCCCn1cnc2c(NC[C@H](NC(=O)OCc3ccccc3)C(=O)O)ncnc21` [Beispiel 14, N^6-(3-(2S-(Benzyloxycarbonylamino)propionsäure))-N^9-(1-(5-guanidinylpentyl))-adenin], the inhibition at 10 µM was found to be 84%.

Turning to `NCCCCCn1cnc2c(NC[C@H](NC(=O)OCc3ccccc3)C(=O)O)ncnc21` [Beispiel 14c, N^6-(3-(2S-(Benzyloxycarbonylamino)propionsäure))-N^9-(1-(5-aminopentyl))-adenin], the inhibition at 10 µM was determined as 22%.

Take `O=C(N[C@@H](CNc1ncnc2c1ncn2CCCCCNC1=NCCN1)C(=O)O)OCc1ccccc1` [Beispiel 15, N^6-(3-(2S-(Benzyloxycarbonylamino)propionsäure))-N^9-(1-(5-(4,5-dihydro-1H-imidazol-2-ylamino)pentyl))-adenin]: the inhibition at 10 µM was 92%.

In the case of `N=C(N)NCCCn1cnc2c(NC[C@H](NC(=O)OCc3ccccc3)C(=O)O)ncnc21` [Beispiel 16, N^6-(3-(2S-(Benzyloxycarbonylamino)propionsäure))-N^9-(1-(3-guanidinylpropyl))-adenin], the inhibition at 10 µM was 85%.

With `NCCCn1cnc2c(NC[C@H](NC(=O)OCc3ccccc3)C(=O)O)ncnc21` [Beispiel 16b, N^6-(3-(2S-(Benzyloxycarbonylamino)propionsäure))-N^9-(1-(3-aminopropyl))-adenin], the inhibition at 10 µM amounted to 29%.

Regarding `N=C(N)NCCCCn1cnc2c(NC[C@H](NC(=O)OCc3ccccc3)C(=O)O)ncnc21` [Beispiel 17, N^6-(3-(2S-(Benzyloxycarbonylamino)propionsäure))-N^9-(1-(4-guanidinylbutyl))-adenin], the inhibition at 10 µM stood at 92%.

Turning to `O=C(N[C@@H](CNc1ncnc2c1ncn2CCCCNC1=NCCN1)C(=O)O)OCc1ccccc1` [Beispiel 18], the inhibition at 10 µM was found to be 95%.

For the compound `O=C(N[C@@H](Cn1cnc2c(N3CCC(C(=O)NC4=NCCCN4)CC3)ncnc21)C(=O)O)OCc1ccccc1` [Beispiel 19, 2S-Benzyloxycarbonylamino-3-(6-(4-(1,4,5,6-tetrahydropyrimidin-2-ylcarbamoyl)-piperdin-1-yl)-purin-9-yl)-propionsäure], the inhibition at 10 µM came out at 97%.

In the case of `O=C(N[C@@H](Cn1cnc2c(NCCCCNc3nc4ccccc4[nH]3)ncnc21)C(=O)O)OCc1ccccc1` [Beispiel 23, 3-(6-((4-(Benzimidazol-2-ylamino)-butyl)-amino)-purin-9-yl)-2S-benzyloxycarbonyl-amino-propionsäure], the inhibition at 10 µM was 93%.

Regarding `O=C(N[C@@H](Cn1cnc2c(N3CCC(CNC4=NCCN4)CC3)ncnc21)C(=O)O)OCc1ccccc1` [Beispiel 24, 2S-Benzyloxycarbonylamino-3-(6-(4-((4,5-dihydro-1H-imidazol-2-ylamino)-methyl)-piperidin-1-yl)-purin-9-yl)-propionsäure], the inhibition at 10 µM was found to be 95%.

`O=C(N[C@H](Cn1cnc2c(N3CCC(CNC4=NCCN4)CC3)ncnc21)C(=O)O)OCc1ccccc1` [Beispiel 25]: the inhibition at 10 µM came out at 89%.

Turning to `N=C(N)NCC1CCN(c2ncnc3c2ncn3C[C@H](NC(=O)OCc2ccccc2)C(=O)O)CC1` [Beispiel 26, 2S-Benzyloxycarbonylamino-3-(6-(4-(guanidinomethyl)-piperidin-1-yl)-purin-9-yl)-propionsäure], the inhibition at 10 µM was 91%.
